The subject of one assay is OCI-AML3 cells. As to the kind of experiment: OCI-AML3 cell growth inhibition, dose-response viability assay (CellTiterGlo). Conditions: Homo sapiens, OCI-AML-3, 144 h, read-out: AML-3 EC50. In kind it is cell-based. Summed up:
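OCI-AML3 cells seeded, then exposed to compound in serial dilutions from 10 μM to 0.5 nM, in duplicate or quadruplicate. Viability read by CellTiter-Glo.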
Background: In ATP-based viability assays light output follows the ATP content of the culture.

The next assay deals with MLL-AF9 cells. As to the kind of experiment: MLL-AF9 leukemia cell growth inhibition, dose-response viability assay (CellTiterGlo). Type of assay: cell-based, murine. The note with it: Mus musculus, read-out: MLL-AF9 EC50. A digest of the protocol:
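Murine MLL-AF9 leukemia cells (female, MSCV MLL-AF9 IRES Puro transduced) were treated with serial compound dilutions from 10 μM to 0.5 nM in duplicates or quadruplicates. Viability read by CellTiterGlo dose-response.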

Where [1] appears, read: OCI-AML3 cells, 6 days of culture, CellTiterGlo.

SMILES strings stand for the structures. Where two headings read alike, the source gives them in different places.

On to `Fc1cc(Br)ccc1/C=C/c1nc(CNc2ccc(CCCCn3ccnn3)cc2)co1` [Compound 27, (E)-4-(4-(1H-1,2,3-triazol-1-yl)butyl)-N-((2-(4-bromo-2-fluorostyryl)oxazol-4-yl)methyl)aniline], for which the EC50 lay within 500 to 1000 nM in the assay with OCI-AML3 cells and 50 to 100 nM in the assay with MLL-AF9 cells (MLL-AF9, 120 h).

Take `Fc1ccc(/C=C/c2nc(COc3ccc(CCCCn4ccnn4)cc3)co2)cc1` [Compound 39, (E)-4-((4-(4-(1H-1,2,3-triazol-1-yl)butyl)phenoxy)methyl)-2-(4-fluorostyryl)oxazole]: the EC50 lay in the range of 100 to 500 nM with OCI-AML3 cells and 100 to 500 nM with MLL-AF9 cells (MLL-AF9, 120 h).

Turning to `CC(C)(C)OC(=O)NCCCCc1ccc(OCc2coc(/C=C/c3ccc(C(F)(F)F)cc3)n2)cc1` [Compound 79, (E)-tert-butyl (4-(4-((2-(4-(trifluoromethyl)styryl)oxazol-4-yl)methoxy)phenyl)butyl) carbamate], the EC50 in the assay with OCI-AML3 cells lay in the range of 1000 to 10000 nM; with MLL-AF9 cells (MLL-AF9, 120 h) it was 1000 to 10000 nM.

Regarding `C[Si](C)(C)c1cn(CCCCc2ccc(OCc3coc(/C=C/c4ccc(Br)cc4F)n3)cc2)nn1` [Compound 3B, (E)-2-(4-Bromo-2-fluorostyryl)-4-((4-(4-(4-(trimethylsilyl)-1H-1,2,3-triazol-1-yl)butyl)phenoxy)methyl)oxazole], the EC50 fell in the range of 500 to 1000 nM with OCI-AML3 cells (setting [1]) and 100 to 500 nM in the assay on MLL-AF9 cells (MLL-AF9, 120 h).

In the case of `FC(F)(F)c1ccc(/C=C/c2ccc(COc3ccc(CCCCn4ccnn4)cc3)cc2)cc1` [Compound 57, (E)-1-(4-(4-((4-(4-(trifluoromethyl)styryl)benzyl)oxy)phenyl)butyl)-1H-1,2,3-triazole], the EC50 was in the range of 1000 to 10000 nM with OCI-AML3 cells and 500 to 1000 nM with MLL-AF9 cells (MLL-AF9, 120 h).

Consider `O=[N+]([O-])c1ccc(/C=C/c2nc(COc3ccc(CCCCn4ccnn4)cc3)co2)c(F)c1` [Compound 65, (E)-4-((4-(4-(1H-1,2,3-triazol-1-yl)butyl)phenoxy)methyl)-2-(2-fluoro-4-nitrostyryl)oxazole], for which the EC50 was 50 to 100 nM with OCI-AML3 cells and under 50 nM in the assay with MLL-AF9 cells (MLL-AF9, 120 h).

Turning to `Fc1cc(C(F)(F)F)ccc1/C=C/c1nc(COc2ccc(SCCCn3ccnn3)cc2)co1` [Compound 130, (E)-4-((4-((3-(1H-1,2,3-triazol-1-yl)propyl)thio)phenoxy)methyl)-2-(2-fluoro-4-(trifluoromethyl)styryl)oxazole], the EC50 with OCI-AML3 cells was under 50 nM; with MLL-AF9 cells (MLL-AF9, 120 h), under 50 nM.

For the compound `Fc1ccc2oc(-c3nc(COc4ccc(CCCCn5ccnn5)cc4)co3)cc2c1` [Compound 112, 4-((4-(4-(1H-1,2,3-triazol-1-yl)butyl)phenoxy)methyl)-2-(5-fluorobenzofuran-2-yl) oxazole], the concentration for a half-maximal effect (EC50) in the assay with OCI-AML3 cells lay within 100 to 500 nM; in the assay with MLL-AF9 cells (MLL-AF9, 120 h), 50 to 100 nM.

`Fc1cc(C(F)(F)F)ccc1/C=C/c1nc(COc2ccc(CCCCn3ccnn3)nc2)co1` [Compound 133, (E)-4-(((6-(4-(1H-1,2,3-triazol-1-yl)butyl)pyridin-3-yl)oxy)methyl)-2-(2-fluoro-4-(trifluoromethyl)styryl)oxazole]: the EC50 in the assay on OCI-AML3 cells was in the range of 100 to 500 nM; with MLL-AF9 cells (MLL-AF9, 120 h), 50 to 100 nM.

`Fc1cc(C(F)(F)F)ccc1/C=C/c1nc(COc2ccc(CCCCn3ccnc3)cc2)co1` [Compound 100, (E)-4-((4-(4-(1H-imidazol-1-yl)butyl)phenoxy)methyl)-2-(2-fluoro-4-(trifluoromethyl)styryl)oxazole]: the EC50 lay in the range of 500 to 1000 nM with OCI-AML3 cells and 500 to 1000 nM in the assay with MLL-AF9 cells (MLL-AF9, 120 h).

For `CCOC(=O)c1nnn(CCCCc2ccc(OCc3coc(/C=C/c4ccc(C(F)(F)F)cc4)n3)cc2)c1C(=O)OCC` [Compound 6, (E)-diethyl 1-(4-(4-((2-(4-(trifluoromethyl)styryl)oxazol-4-yl)methoxy)phenyl)butyl)-1H-1,2,3-triazole-4,5-dicarboxylate], the EC50 in the assay with OCI-AML3 cells is 1000 to 10000 nM; in the assay on MLL-AF9 cells (MLL-AF9, 120 h), 1000 to 10000 nM.

On to `Clc1ccc(/C=C/c2nc(COc3ccc(CCCCn4ccnn4)cc3)co2)cc1` [Compound 38, (E)-4-((4-(4-(1H-1,2,3-triazol-1-yl)butyl)phenoxy)methyl)-2-(4-chlorostyryl)oxazole], for which the EC50 in the assay with OCI-AML3 cells fell in the range of 50 to 100 nM; in the assay with MLL-AF9 cells (MLL-AF9, 120 h), 100 to 500 nM.

With `Cc1cn(CCCCc2ccc(OCc3coc(/C=C/c4ccc(C(F)(F)F)cc4F)n3)cc2)nn1` [Compound 92, (E)-2-(2-fluoro-4-(trifluoromethyl)styryl)-4-((4-(4-(4-methyl-1H-1,2,3-triazol-1-yl)butyl)phenoxy)methyl) oxazole], the EC50 with OCI-AML3 cells was 500 to 1000 nM; in the assay on MLL-AF9 cells (MLL-AF9, 120 h), 100 to 500 nM.

As to `COCCNC(=O)OCCc1cn(CCCCc2ccc(OCc3coc(/C=C/c4ccc(C(F)(F)F)cc4)n3)cc2)nn1` [Compound 69, (E)-2-(1-(4-(4-((2-(4-(trifluoromethyl)styryl)oxazol-4-yl)methoxy)phenyl)butyl)-1H-1,2,3-triazol-4-yl)ethyl (2-methoxyethyl)carbamate], the EC50 with OCI-AML3 cells lay in the range of 500 to 1000 nM; in the assay on MLL-AF9 cells (MLL-AF9, 120 h), 100 to 500 nM.

Consider `O=[N+]([O-])c1cccc(/C=C/c2nc(COc3ccc(CCCCn4ccnn4)cc3)co2)c1` [Compound 43, (E)-4-((4-(4-(1H-1,2,3-triazol-1-yl)butyl)phenoxy)methyl)-2-(3-nitrostyryl)oxazole], for which the EC50 was in the range of 1000 to 10000 nM with OCI-AML3 cells and 1000 to 10000 nM in the assay on MLL-AF9 cells (MLL-AF9, 120 h).

For `OC(CCCn1ccnn1)c1ccc(OCc2coc(/C=C/c3ccc(C(F)(F)F)cc3F)n2)cc1` (centres unmarked) [Compound 23, (E)-1-(4-((2-(2-fluoro-4-(trifluoromethyl)styryl)oxazol-4-yl)methoxy)phenyl)-4-(1H-1,2,3-triazol-1-yl)butan-1-ol], the EC50 in the assay with OCI-AML3 cells was 100 to 500 nM; with MLL-AF9 cells (MLL-AF9, 120 h), 50 to 100 nM.

On to `Fc1cc(F)c2cc(-c3nc(COc4ccc(SCCCn5ccnn5)cc4)co3)[nH]c2c1` [Compound 144, 4-((4-((3-(1H-1,2,3-triazol-1-yl)propyl)thio)phenoxy)methyl)-2-(4,6-difluoro-1H-indol-2-yl)oxazole], for which the EC50 in the assay on OCI-AML3 cells was under 50 nM; in the assay with MLL-AF9 cells (MLL-AF9, 120 h), under 50 nM.

Consider `Fc1cnccc1/C=C/c1nc(COc2ccc(CCCCn3ccnn3)cc2)co1` [Compound 81, (E)-4-((4-(4-(1H-1,2,3-triazol-1-yl)butyl)phenoxy)methyl)-2-(2-(3-fluoropyridin-4-yl)vinyl)oxazole], for which the EC50 with OCI-AML3 cells lay within 50 to 100 nM; in the assay on MLL-AF9 cells (MLL-AF9, 120 h) it was 50 to 100 nM.

In the case of `COC(=O)c1coc(COc2ccc(CCCCn3ccnn3)cc2)n1` [Compound 77, Methyl 2-((4-(4-(1H-1,2,3-triazol-1-yl)butyl)phenoxy)methyl)oxazole-4-carboxylate], the EC50 is 1000 to 10000 nM with OCI-AML3 cells and over 10000 nM with MLL-AF9 cells (MLL-AF9, 120 h).

For the compound `O=C(CCCn1ccnn1)c1ccc(OCc2coc(/C=C/c3ccc(C(F)(F)F)cc3)n2)cc1` [Compound 16, (E)-4-(1H-1,2,3-triazol-1-yl)-1-(4-((2-(4-(trifluoromethyl)styryl)oxazol-4-yl)methoxy)phenyl)butan-1-one], the EC50 in the assay with OCI-AML3 cells lay within 1000 to 10000 nM; with MLL-AF9 cells (MLL-AF9, 120 h), 100 to 500 nM.

Regarding `FC(F)(F)c1ccc(-c2nc(COc3ccc(CCCCn4ccnn4)cc3)co2)cc1` [Compound 28, 4-((4-(4-(1H-1,2,3-triazol-1-yl)butyl)phenoxy)methyl)-2-(4-(trifluoromethyl)phenyl)oxazole], the EC50 in the assay with OCI-AML3 cells (setting [1]) is 1000 to 10000 nM; with MLL-AF9 cells (120 h, MLL-AF9 cells, 5 days of culture, CellTiterGlo), 100 to 500 nM.

With `C(=C\c1nc(COc2ccc(CCCCn3ccnn3)cc2)co1)/c1cccnc1` [Compound 82, (E)-4-((4-(4-(1H-1,2,3-triazol-1-yl)butyl)phenoxy)methyl)-2-(2-(pyridin-3-yl)vinyl)oxazole], the EC50 in the assay with OCI-AML3 cells is 100 to 500 nM; in the assay with MLL-AF9 cells (MLL-AF9, 120 h) it was 100 to 500 nM.

Broadly, the EC50 is the concentration at which the effect is half-maximal.

For the origin of these results see patent US11760754B2, “Heterocyclic mitochondrial activity inhibitors and uses thereof” (UNIVERSITÉ DE MONTRÉAL, priority 2017, dated 2023).
